Measurements published in patent US12631623B2, “Heart tissue model” (IMBA—INSTITUT FÜR MOLEKULARE BIOTECHNOLOGIE GMBH, priority 2020, dated 2026).
“Also recorded” adds a separate entry of the source. Each block holds one molecule with its values, some of them ahead of it.

Columns and labels:
[1] = tested on: cardiac organoids (hPSC-derived); experiment: Reporter imaging / immunostaining of cardiomyocyte and endothelial cell organisation in cardiac organoids; assay type: cell-based, human; conditions: for location of endothelial cell layer: with VEGF; for organization of cardiomyocytes and endothelial cells: Wnt-inhibitor during differentiation, CHIR99021 5 μM or 6 μM; for EC lining of cavity: VEGF(-A) added after CM specification stage; for separation of CM and EC layers: VEGF(-A) included at cardiac mesoderm stage
Procedure: (§1) Immunostaining—Following fixation with 4% PFA (Sigma-Aldrich, #16005) specimens were washed twice in 1×PBS and the 3D constructs additionally once in PBS/Tween20 (0.1%, Sigma-Aldrich, #P1379) for at least 15 min each. Tissues were incubated in blocking solution consisting of PBS (Gibco, #14190094) with 4% goat (Bio-Rad Laboratories, #C07SA) or donkey serum (Bio-Rad Laboratories, #C06SB) and 0.2% Triton X-100 (Sigma-Aldrich, #T8787) for at least 15 minutes. The primary antibody was subsequently applied in above blocking buffer for 1-3 hours at room temperature or overnight at 4° C. in the case of the 2D samples and 2 days at 4° C. on a shaker for 3D samples. Following washing twice with PBS/Tween20, 3D tissues were incubated with the secondary antibody solution at 4° C. on a shaker for 2 more days while 2D samples were incubated up to 2 hours at room temperature. Following these washing steps and an additional PBS wash, tissues were ready for analysis or storage at 4° C. in PBS, while slides were mounted using fluorescence mounting medium (Dako Agilent Pathology Solutions, #S3023). 3D tissues were cleared with FocusClear (CellExplorer Labs, #FC-101) prior to imaging.
(§2) Image acquisition and analysis—Fixed whole mounts and sections were imaged with point scanning (upright Zeiss LSM800 Axio Imager with an Apochromat 20× objective lens at 1× magnification) and spinning disk confocal microscopes (Olympus spinning disk system based on a IX3 Series (IX83) inverted microscope, equipped with a Yokogawa W1 spinning disc), or a widefield microscope (Zeiss Axio Imager 2, Axio Vert A1, Panoramic FLASH 250 II System). Live imaging experiments were performed using a Zeiss Celldiscoverer 7 or above-mentioned spinning disk microscope. For high-throughput imaging and analysis, images were taken with a Celigo Imaging Cytometer microscope (Nexcelom Biosciences, LLC) and analyzed with custom-made scripts written for the FIJI software. Sections for transmission electron microscopy were examined with aFEI Morgagni 268D TEM (FEI, Eindhoven, The Netherlands) operated at 80 kV. Images were acquired using an 11 megapixel Morada CCD camera (Olympus-SIS).

hPSCs (WTC MYH10-GFP) = experiment: Mesoderm induction of hPSC aggregates (T / SOX2 staining); assay type: cell-based, human; conditions: 8 uM CHIR99021, 40 h of mesoderm induction, 1000 hPSCs
Procedure: as §1

cardioids (hPSC-derived) [2] = experiment: High-throughput imaging of cardioid diameter and cavity expansion at the cardiac mesoderm stage (day 3.5); assay type: cell-based, human; conditions: for cardiac mesoderm density / cell number per cardioid: BMP inhibition with Noggin or LDN193189, initial two days of cardiac mesoderm stage; for cavity expansion / cavity morphogenesis / organoid/cardioid diameter (size): Noggin 100 ng/ml or LDN193189 0.2 μM, initial two days of cardiac mesoderm stage
Procedure: as §2
We next used cardioids to dissect how signaling controls intrinsic morphogenesis and patterning during cardioid specification. To quantify phenotypes with high statistical power, we combined the high-throughput cardioid platform with a custom-made semi-automated imaging/analysis FIJI-pipeline. Using this setup, we examined which signals control cardioid self-organization and at what stage of mesodermal specification they act. We first systematically tested the effects of key mesoderm and cardiac mesoderm signaling dosages (e. g. WNT, BMP) on cardiac cavity self-morphogenesis. […] An intermediate WNT dosage promoted both cavity morphogenesis and CM specification. The optimal WNT activation range was consistent for each hPSC line but differed across lines, consistent with numerous studies showing line-specific signaling responses. Importantly, the highest WNT dosage promoted cavity formation without CM specification (FIG. 16A), highlighting a striking difference in signaling control of cell-fate specification versus morphogenesis.

cardioids (hPSC-derived) [3] = experiment: RNA-seq gene expression of cardioids induced with high vs low CHIR99021; assay type: cell-based, human
Procedure: RNA isolation and RNA-seq/Smart-Seq2/single-cell (sc)RNA-seq preparation—RNA was isolated with the RNeasy Mini Kit (Qiagen, #74104). Generation of the bulk RNA-seq libraries was performed according to the manufacturer's instructions with QuantSeq 3′ mRNA-Seq Library Prep Kit FWD (Lexogen GmbH, #015). After the preparation of the libraries, samples were checked for an adequate size distribution with a fragment analyzer (Advanced Analytical Technologies, Inc) and were submitted to the Vienna Biocenter Core Facilities (VBCF) Next-Generation-Sequencing (NGS) facility for sequencing. For Smart-Seq2 analysis, 400 cells were sorted into lysis buffer and stored at −80° C. until further processing. […]
Bioinformatic analysis—Trimming was performed for Smart-Seq2 experiments using trim-galore v0.5.0 and for QuantSeq 3′ mRNA-Seq experiments using BBDuk v38.06 (ref=polyA.fa.gz,truseq.fa.gz k=13 ktrim=r useshortkmers=t mink=5 qtrim=r trimq=10 minlength=20). Reads mapping to abundant sequences included in the iGenomes UCSC hg38 reference (human rDNA, human mitochondrial chromosome, phiX174 genome, adapter) were removed using bowtie2 v2.3.4.1 alignment. Remaining reads were analyzed using genome and UCSC gene annotation provided in the iGenomes UCSC hg38 bundle (support.illumina.com/sequencing/sequencingsoftware/igenome.html). […]

[4] = tested on: cardiac organoids (hPSC-derived, WTC MYL7-GFP/CDH5-Tomato)
Procedure: Generation of cardiac organoids with endothelial lining—Pluripotency maintenance medium was refreshed 6 h prior to seeding cells. Then, 2500-3000 hPSC were seeded into ultra-low cluster 96-well plates (Corning) in FLyAB(Ins) medium with CHIR (5-6 μM) and ROCKi (5 μM) for 36 h-40 h.
In order to stop endothelial cell differentiation, 100 nM sunitinib malate (Biovision, #1611) was added from the cardiac mesoderm stage (BFIIWPRa) onward.
Flow cytometry—Cells were dissociated using the CM dissociation kit (Stem Cell Technologies, #05025). After centrifugation for 3 min at 130 g, cells were resuspended in 300 μl PBS supplemented with 0.5 mM EDTA (Biological Industries, #01-862-1B) and 10% FBS (PAA Laboratories, #A15-108). Cells were acquired with a FACS LSR Fortessa II (BD) and analysed with FlowJo V10 (FlowJo, LLC) software. FACS sorting was performed using a Sony SH800 Cell Sorter (Sony Biotechnology).

[5] = tested on: cardiac mesoderm cavity structures (cardioids); experiment: Dextran incorporation assay in cardioids; assay type: cell-based, human; conditions: low-molecular-weight (4 kDa) dextran, cardiac mesoderm stage
Procedure: Dextran and Fluo-4 incorporation assays—A 4.4 kDa Dextran conjugated with TAMRA (Sigma Aldrich, T1037) was added to the cardioid culture between 64 h and 90 h. Cardioids were live imaged as cavities started to form. To image and analyze calcium-transients, 3D cardioids and 2D CM were loaded with Fluo-4 AM (Thermo Fisher Scientific, #F14217). After a 15-min incubation, cardioids were incubated for another 15 min in Tyrode's salt solution (Sigma Aldrich, #T2397). Subsequently, cardioids were imaged live and videos were analyzed with FIJI software (Schindelin et al., 2012, Nature Methods 9, 676-682) to acquire the signal intensity (F) of regions of interest and background (F0).

[6] = +Sunitinib (100 μM [sic]), end of differentiation day 7.5

Molecule: Cc1c[nH]c(-c2cnc(NCCNc3ccc(C#N)cn3)nc2-c2ccc(Cl)cc2Cl)n1 [CHIR99021]
- endothelial lining of cavities ([1]; 4 uM CHIR99021 during induction, d27, WTC MYL7-GFP): lining of internal cavities by endothelial (CD31+) cells
- apoptosis (cleaved caspase 3 staining) ([1]; 4 μM CHIR condition): increased levels inside the EC ring
- apoptosis (cleaved caspase 3 staining) ([1]; 6 μM CHIR condition): low levels of apoptosis
- location of endothelial cell layer ([1]; high WNT activity, 5-8 μM CHIR during mesoderm induction): compartment/lining around the cardiomyocytes
- location of endothelial cell layer ([1]; lower WNT activity, 4 μM (1-4 μM) CHIR during mesoderm induction): inner ring of EC expressing CD31
- location of endothelial cell layer ([1]; lower WNT activity, 4 μM (1-4 μM) CHIR during mesoderm induction, listed as CHIR): inside lining facing the cavity
- exit from pluripotency (T up, SOX2 down) (hPSCs (WTC MYH10-GFP)): efficiently exited pluripotency
- cavity defect of HAND1 KO organoids (cardioids (hPSC-derived) [2]; increased CHIR99021 during mesoderm induction, HAND1 KO (H9), d3.5): rescues cavity defect in HAND1 KO organoids
- cardioid diameter / lumen expansion as function of CHIR99021 dosage (cardioids (hPSC-derived) [2]; range of CHIR99021 concentrations during mesoderm induction, day 3.5): dramatic effects on cardioid diameter; also recorded: striking effects on lumen expansion
- EC genes (PECAM1, CDH5, VEGFA, TAL1, LMO2, ETV2) expression (cardioids (hPSC-derived) [3]; 4 μM CHIR99021 during mesoderm induction vs 8 μM): upregulated; also recorded: higher expression of EC-specifying genes
- BMP target genes (HAND1, IRX3, BMP4, BMP2, BMPR2) expression (cardioids (hPSC-derived) [3]; 8 μM during mesoderm induction (cavity-forming conditions)): upregulated

Molecule: Cc1ccc2nc(NC(=O)CSc3nc4c(c(=O)n3-c3ccccc3)SCC4)sc2c1 [IWP2]
- organization of cardiomyocytes and endothelial cells [1]: two-layered organization

Molecule: O=C(Nc1cccc2cccnc12)c1ccc(N2C(=O)[C@@H]3[C@H](C2=O)[C@@H]2C=C[C@H]3C2)cc1 [IWR-1]
- organization of cardiomyocytes and endothelial cells [1]: two-layered organization

Molecule: c1ccc2c(-c3cnn4cc(-c5ccc(N6CCNCC6)cc5)cnc34)ccnc2c1 [LDN193189]
- cardiac mesoderm density (cardioids (hPSC-derived) [2]): denser cardiac mesoderm
- cell number per cardioid (cardioids (hPSC-derived) [2]): remained stable
- cavity expansion / cavity morphogenesis (cardioids (hPSC-derived) [2]): interfere with cavity expansion; also recorded: impaired cavity morphogenesis
- organoid/cardioid diameter (size) (cardioids (hPSC-derived) [2]; day 3.5): significantly decreased diameter; also recorded: reduces cardioid diameter; also recorded: decreased cardioid size

Molecule: CCN(CC)CCNC(=O)c1c(C)[nH]c(/C=C2\C(=O)Nc3ccc(F)cc32)c1C [Sunitinib]
- MYL7-GFP expressing cardiomyocytes [4, 6]: 96%
- cells expressing the endothelial marker CDH5-Tomato [4, 6]: 3%
- cardiomyocytes in organoids ([4]; Sunitinib 100 nM in the first 10 days of differentiation or longer): over 95%

Molecule: Oc1nc(-c2ccc(C(F)(F)F)cc2)nc2c1CSCC2 [XAV939]
- organization of cardiomyocytes and endothelial cells [1]: two-layered organization

Molecule: VEGF
- cell composition of cardioid-like structures ([1]; VEGF during cardiac mesoderm stage, no WNT inhibition): containing only ECs and fibroblast-like cells without CMs; also recorded: contained primarily ECs and COL1A1^+ cells, without CMs
- EC lining of cavity [1]: occasionally led to partial EC lining of cavities but often also to ECs forming a partial outside layer
- EC lining of cavity ([1]; listed as VEGF-A): occasionally observed formation of an EC layer lining the cardioid cavity
- separation of CM and EC layers [1]: separate into a CM and an EC layer with a space between them
- separation of CM and EC layers ([1]; listed as VEGF-A): separated into CM and EC layers
- cardiomyocytes (MYL7+) in organoids ([4]; VEGF 200 ng/ml at cardiac mesoderm stage, intermediate WNT activation): ~41%
- endothelial cells (CDH5+) in organoids ([4]; VEGF 200 ng/ml at cardiac mesoderm stage, intermediate WNT activation, listed as VEGF-A): 53%

- permeability of cavity structures [5]: impermeable
- permeability of cavity structures ([5]; listed as dextrans): not permeable
Molecule: dextran

B1: BMP4: bone morphogenetic protein 4 (protein, UniProt P12644 293-408, looked up)
Bone morphogenetic protein 4: SPKHHSQRARKKNKNCRRHSLYVDFSDVGWNDWIVAPPGYQAFYCHGDCPFPLADHLNSTNHAIVQTLVNSVNSSIPKACCVPTELSAISMLYLDEYDKVVLKNYQEMVVEGCGCR
- cavity expansion (cardioids (hPSC-derived) [2]; BMP signalling dosage at cardiac mesoderm stage, higher levels of BMP4): drove cavity expansion

B2: Noggin (protein, UniProt Q13253 28-232, looked up)
Noggin: QHYLHIRPAPSDNLPLVDLIEHPDPIFDPKEKDLNETLLRSLLGGHYDPGFMATSPPEDRPGGGGGAAGGAEDLAELDQLLRQRPSGAMPSEIKGLEFSEGLAQGKKQRLSKKLRRKLQMWLWSQTFCPVLYAWNDLGSRFWPRYVKVGSCFSKRSCSVPEGMVCKPSKSVHLTVLRWRCQRRGGQRCGWIPIQYPIISECKCSC
- cardiac mesoderm density (cardioids (hPSC-derived) [2]): denser cardiac mesoderm
- cell number per cardioid (cardioids (hPSC-derived) [2]): remained stable
- cavity expansion / cavity morphogenesis (cardioids (hPSC-derived) [2]): interfere with cavity expansion; also recorded: heavily impaired cavity expansion; also recorded: impaired cavity morphogenesis
- organoid/cardioid diameter (size) (cardioids (hPSC-derived) [2]; day 3.5): significantly decreased diameter; also recorded: reduces cardioid diameter; also recorded: decreased cardioid size
